{
  "source": "PubChem BioAssay (NCI)",
  "assay_in_all_cases": "NCI tumour cell line growth inhibition, 48 h",
  "key": {"LXFL 529 NSCLC": {"system": "LXFL 529 NSCLC"}, "KM20L2 colon": {"system": "KM20L2 colon"}, "HOP-18 NSCLC": {"system": "HOP-18 NSCLC"}, "P388 leukemia": {"system": "P388 leukemia"}, "P388/ADR leukemia": {"system": "P388/ADR leukemia"}, "DLD-1 colon": {"system": "DLD-1 colon"}, "SN12K1 renal": {"system": "SN12K1 renal"}, "RXF-631 renal": {"system": "RXF-631 renal"}},
  "note": "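Interpolation was linear, between the two tested concentrations surrounding the appropriate level; five concentrations were tested over 48 hours in 96-well plates. The concentration for 50% growth inhibition is given as GI50. TGI denotes the concentration required for complete inhibition of growth.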",
  "data": [
    {"smiles": "COc1ccc2c(c1OC)C(=O)C2", "values": [
      {"measurement": "TGI", "setting": "LXFL 529 NSCLC", "value": "> 100", "unit": "µM"},
      {"measurement": "TGI", "setting": "KM20L2 colon", "value": "> 100", "unit": "µM"},
      {"measurement": "TGI", "setting": "HOP-18 NSCLC", "value": "> 100", "unit": "µM"}
    ]},
    {"smiles": "COc1ccc(C2CC(c3sc(Nc4ccc(C)cc4)nc3C)=NN2)cc1", "note": "(configuration not stated)", "values": [
      {"measurement": "TGI", "setting": "KM20L2 colon", "value": 31.3, "unit": "µM"},
      {"measurement": "TGI", "setting": "P388 leukemia", "value": 20.3, "unit": "µM"},
      {"measurement": "TGI", "setting": "HOP-18 NSCLC", "value": 35.4, "unit": "µM"},
      {"measurement": "TGI", "setting": "P388/ADR leukemia", "value": 24.3, "unit": "µM"},
      {"measurement": "TGI", "setting": "DLD-1 colon", "value": 35.7, "unit": "µM"},
      {"measurement": "TGI", "setting": "SN12K1 renal", "value": 28.9, "unit": "µM"}
    ]},
    {"smiles": "COc1ccc2[nH]c3ccc4cc[n+](CCN5CCC(C6CCN(CC[n+]7ccc8ccc9[nH]c%10ccc(OC)cc%10c9c8c7)CC6)CC5)cc4c3c2c1", "values": [
      {"measurement": "TGI", "setting": "KM20L2 colon", "value": "> 100", "unit": "µM"},
      {"measurement": "TGI", "setting": "P388 leukemia", "value": "> 100", "unit": "µM"},
      {"measurement": "TGI", "setting": "HOP-18 NSCLC", "value": 15.1, "unit": "µM"},
      {"measurement": "TGI", "setting": "P388/ADR leukemia", "value": "> 100", "unit": "µM"},
      {"measurement": "TGI", "setting": "DLD-1 colon", "value": "> 100", "unit": "µM"},
      {"measurement": "TGI", "setting": "SN12K1 renal", "value": "> 52", "unit": "µM"}
    ]},
    {"smiles": "Nc1nnc(N)n1N", "values": [
      {"measurement": "TGI", "setting": "RXF-631 renal", "value": "> 100", "unit": "µM"},
      {"measurement": "TGI", "setting": "LXFL 529 NSCLC", "value": "> 100", "unit": "µM"},
      {"measurement": "TGI", "setting": "DLD-1 colon", "value": "> 100", "unit": "µM"}
    ]},
    {"smiles": "Cc1ccc(C(=O)Nc2ccc(S(=O)(=O)O)c3cc(S(=O)(=O)O)cc(S(=O)(=O)O)c23)cc1NC(=O)c1cccc(NC(=O)Nc2cccc(C(=O)Nc3cc(C(=O)Nc4ccc(S(=O)(=O)O)c5cc(S(=O)(=O)O)cc(S(=O)(=O)O)c45)ccc3C)c2)c1", "values": [
      {"measurement": "TGI", "setting": "LXFL 529 NSCLC", "value": "> 100", "unit": "µM"},
      {"measurement": "TGI", "setting": "KM20L2 colon", "value": "> 100", "unit": "µM"},
      {"measurement": "TGI", "setting": "HOP-18 NSCLC", "value": "> 93.3", "unit": "µM"},
      {"measurement": "TGI", "setting": "DLD-1 colon", "value": "> 100", "unit": "µM"}
    ]},
    {"smiles": "CCC1(O)C(=O)OCc2c1cc1n(c2=O)Cc2cc3cc4c(cc3nc2-1)OCO4", "note": "(configuration not stated)", "values": [
      {"measurement": "TGI", "setting": "RXF-631 renal", "value": 1.13, "unit": "µM"},
      {"measurement": "GI50", "setting": "LXFL 529 NSCLC", "value": 0.128, "unit": "µM"},
      {"measurement": "TGI", "setting": "LXFL 529 NSCLC", "value": 2.27, "unit": "µM"},
      {"measurement": "TGI", "setting": "KM20L2 colon", "value": 0.738, "unit": "µM"},
      {"measurement": "TGI", "setting": "P388 leukemia", "value": 0.117, "unit": "µM"},
      {"measurement": "TGI", "setting": "HOP-18 NSCLC", "value": 0.824, "unit": "µM"},
      {"measurement": "TGI", "setting": "P388/ADR leukemia", "value": "< 0.0172", "unit": "µM"},
      {"measurement": "TGI", "setting": "DLD-1 colon", "value": "> 60.3", "unit": "µM"},
      {"measurement": "TGI", "setting": "SN12K1 renal", "value": 0.331, "unit": "µM"}
    ]},
    {"smiles": "CN(C)CCCNc1ccnc2c([N+](=O)[O-])cccc12", "values": [
      {"measurement": "TGI", "setting": "KM20L2 colon", "value": 16.7, "unit": "µM"}
    ]}
  ]
}
